Laboratory results: patent US8841281B2, “Transition metal complexes of amino acids and related ligands and their use as catalysts, anti-microbials, and anti-cancer agents” (Virginia Tech Intellectual Properties, Inc., priority 2011, dated 2014)

Assays:
S. Aur = experiment: Activity against S. Aur (Table VIIIB); assay type: cell-based, Staphylococcus aureus
MRSA = experiment: Activity against MRSA strains (Table VIIIB, compounds used alone); assay type: cell-based, Staphylococcus aureus
[1] = tested on: mycobacteria, Staphylococcus aureus and methicillin-resistant S. aureus (MRSA); conditions: among Ir, Ru, Rh L-α-amino acid complexes
M. smegmatis = experiment: 96 well plate dilution test, MIC against M. smegmatis; assay type: cell-based; conditions: Iridium piano stool complexes
[2] = tested on: Mycobacterium avium strain A5
[3] = tested on: Mycobacterium chelonae strain EO-P-1
M. abscessus = experiment: 96 well plate dilution test, MIC against M. abscessus; assay type: cell-based; conditions: Iridium piano stool complexes
M. chelonae = experiment: 96 well plate dilution test, MIC against M. chelonae; assay type: cell-based
[4] = tested on: Mycobacterium bovis strain BCG; assay type: cell-based
[5] = tested on: Mycobacterium marinum ATCC 927
[6] = tested on: Mycobacterium smegmatis strain mc^2155; assay type: cell-based
[7] = tested on: Mycobacterium abscessus strain AAy-P-1
[8] = tested on: Mycobacterium intracellulare
E. coli = experiment: MIC of complexes against E. coli; assay type: cell-based

## CN(C)CCN [4 (N,N-dimethyl ethylenediamine)]
S. Aur
  Activity (MIC) S. Aur: >250 µg/mL
MRSA; strain PI-1
  Activity (MIC) MRSA PI-1: >250 µg/mL
MRSA; strain PI-34380
  Activity (MIC) MRSA PI-34380: >250 µg/mL
MRSA; strain PI-34864
  Activity (MIC) MRSA PI-34864: >250 µg/mL
MRSA; strain PI-36361
  Activity (MIC) MRSA PI-36361: >250 µg/mL
MRSA; strain PI-43300
  Activity (MIC) MRSA PI-43300: >250 µg/mL
MRSA; strain PI-52300
  Activity (MIC) MRSA PI-52300: >250 µg/mL
MRSA; strain PI-53016
  Activity (MIC) MRSA PI-53016: >250 µg/mL

## Cp*IrCl (L-Proline) [1 (L-pro)]
[1]
  relative anti-mycobacterial / antibiotic activity: highest activity
M. smegmatis
  M. smegmatis MIC: 3.9 µg/mL
[2]
  Minimal Inhibitory Concentration (MIC) M. avium: 125 µg/mL
[3]
  Minimal Inhibitory Concentration (MIC) M. chelonae: 15 µg/mL
M. abscessus
  M. abscessus MIC: 3.9 µg/mL
M. chelonae
  M. chelonae MIC: 7.5 µg/mL
[4]
  Minimal Inhibitory Concentration (MIC) M. bovis: 15 µg/mL
[5]
  Minimal Inhibitory Concentration (MIC) M. marinum: >250 µg/mL
[6]
  Minimal Inhibitory Concentration (MIC) M. smegmatis: 10 µg/mL
[7]
  Minimal Inhibitory Concentration (MIC) M. abscessus: 15 µg/mL
[8]
  Minimal Inhibitory Concentration (MIC) M. intracellulare: 61 µg/mL

## C1=CCCC=CCC1.C[P](C)(C)[Ir+]([P](C)(C)C)[P](C)(C)C.[Cl-] [Ir(COD)(PMe3)3]
E. coli
  MIC ug/mL E. coli: 60 µg/mL
